Test results reported in ChEMBL document CHEMBL1157785, “Identification of 4,5-dihydro-1H-pyrazolo[4,3-h]quinazoline derivatives as a new class of orally and selective Polo-like kinase 1 inhibitors” (J Med Chem, 2010).
Values after ≈ are worked out from the molar mass of the structure shown.

Columns and labels:
[1] = Solubility at pH 7 after 24 hrs by LC-MS/MS analysis; assay type: physicochemical; conditions: buffer
[2] = Apparent permeability across human Caco-2 cell membrane at 10 uM after 120 mins by LC-MS/MS analysis; assay type: ADME, cell-based

Compound	solubility at 24 h [1] [µM]	Papp at 2 h, 10 µM [2] [×10⁻⁶ cm/s]
CC(=O)c1ccccc1Nc1ncc2c(n1)-c1c(c(C(N)=O)nn1C)CC2	2 (≈ 0.725 µg/mL)	
Cn1nc(C(N)=O)c2c1-c1nc(Nc3ccccc3Sc3ccccc3)ncc1CC2	< 1	
CC(C)c1ccccc1Nc1ncc2c(n1)-c1c(c(C(N)=O)nn1C)CC2	2 (≈ 0.725 µg/mL)	
Cn1nc(C(N)=O)c2c1-c1nc(Nc3ccccc3)ncc1CC2	3 (≈ 0.961 µg/mL)	58.3
Cn1nc(C(N)=O)c2c1-c1nc(Nc3ccccc3Oc3ccccc3)ncc1CC2	< 1	
Cn1nc(C(N)=O)c2c1-c1nc(Nc3ccccc3-c3ccccc3)ncc1CC2	< 1	
CC(=O)Nc1ccccc1Nc1ncc2c(n1)-c1c(c(C(N)=O)nn1C)CC2	16 (≈ 6.04 µg/mL)	
Cn1nc(C(N)=O)c2c1-c1nc(Nc3ccccc3C(F)(F)F)ncc1CC2	4 (≈ 1.55 µg/mL)	
COC(=O)c1ccccc1Nc1ncc2c(n1)-c1c(c(C(N)=O)nn1C)CC2	2 (≈ 0.757 µg/mL)	
Cn1nc(C(N)=O)c2c1-c1nc(Nc3ccccc3N)ncc1CC2	190 (≈ 63.7 µg/mL)	
Cn1nc(C(=O)O)c2c1-c1nc(Nc3ccccc3)ncc1CC2		2.7
CC(=O)c1ccc(N2CCN(C)CC2)cc1Nc1ncc2c(n1)-c1c(c(C(N)=O)nn1C)CC2	18 (≈ 8.29 µg/mL)	
COc1cc(N2CCN(C)CC2)ccc1Nc1ncc2c(n1)-c1c(c(C(N)=O)nn1C)CC2	> 225	
Cc1ccccc1Nc1ncc2c(n1)-c1c(c(C(N)=O)nn1C)CC2	3 (≈ 1 µg/mL)	

The next lines start with the values.

solubility at 24 h [1] [µM]	Papp at 2 h, 10 µM [2] [×10⁻⁶ cm/s]	Compound
170 (≈ 78.3 µg/mL)		CC(=O)c1c(Nc2ncc3c(n2)-c2c(c(C(N)=O)nn2C)CC3)cccc1N1CCN(C)CC1
< 1		Cn1nc(C(N)=O)c2c1-c1nc(Nc3ccccc3Cc3ccccc3)ncc1CC2
83 (≈ 38.2 µg/mL)		CC(=O)c1cc(N2CCN(C)CC2)ccc1Nc1ncc2c(n1)-c1c(c(C(N)=O)nn1C)CC2
< 1		Cn1nc(C(N)=O)c2c1-c1nc(Nc3ccccc3C(=O)c3ccccc3)ncc1CC2
3 (≈ 1.05 µg/mL)		COc1ccccc1Nc1ncc2c(n1)-c1c(c(C(N)=O)nn1C)CC2
2 (≈ 0.733 µg/mL)		CSc1ccccc1Nc1ncc2c(n1)-c1c(c(C(N)=O)nn1C)CC2
4 (≈ 1.6 µg/mL)		Cn1nc(C(N)=O)c2c1-c1nc(Nc3ccccc3S(N)(=O)=O)ncc1CC2
< 1		Cn1nc(C(N)=O)c2c1-c1nc(Nc3ccccc3C(N)=O)ncc1CC2
3 (≈ 1.02 µg/mL)		Cn1nc(C(N)=O)c2c1-c1nc(Nc3ccccc3F)ncc1CC2
23 (≈ 8.04 µg/mL)		CNc1ccccc1Nc1ncc2c(n1)-c1c(c(C(N)=O)nn1C)CC2
< 1		Cn1nc(C(N)=O)c2c1-c1nc(Nc3ccccc3Nc3ccccc3)ncc1CC2
